Reference: patent publication US9828373B2, “2-amino-pyrido[2,3-D]pyrimidin-7(8H)-one derivatives as CDK inhibitors and uses thereof” (SUNSHINE LAKE PHARMA CO., LTD., priority 2014, dated 2017)
Read-outs that look alike come from different tables or passages of the source.

What was measured:
[1] = biological target: CDK6/CycD3 (Homo sapiens, UniProt Q00534); assay: Enzymatic inhibitory activity in vitro, CDK6 (Caliper mobility shift, FAM-labeled peptide); assay type: biochemical
Description: (§1) The materials are used in the following assay:
(§2) HEPES: 4-(2-Hydroxyethyl)piperazine-1-ethanesulfonic acid; Brij-35: Polyethylene Glycol Monoisotridecyl Ether; DTT: Dithiothreitol; EDTA: Ethylene Diamine Tetraacetic Acid; CDK4/CycD3: Cyclin dependent kinase 4; CDK6/CycD3: Cyclin dependent kinase 6; Peptide FAM-P22: fluorescein-labeled peptide 22; ATP: adenosine triphosphate; DMSO: dimethyl sulfoxide; Staurosporine; Coating Reagent #3;
(§3) 1. Preparation of 1× Kinase Base Buffer and Stop Buffer:
(§4) (1) 1× Kinase buffer without MnCl2 (50 mM HEPES, pH 7.5, 0.0015% Brij-35, 10 mM MgCl2, 2 mM DTT); (2) Stop buffer (100 mM HEPES, pH 7.5, 0.015% Brij-35, 0.2% Coating Reagent #3, 50 mM EDTA).
(§5) (1) The compound was diluted to 50× of the final desired highest inhibitor concentration in reaction by 100% DMSO. Transferring 100 μL of this compound dilution to a well in a 96-well plate. (2) The compound was diluted by transferring 20 μL of the compound dilution to 60 μL of 100% DMSO in the next well and so forth for a total of 10 concentrations. (3) 100 μL of 100% DMSO was added to two empty wells for no compound control and no enzyme control. (4) Intermediate plate was prepared by transferring 10 μL of compound from source plate to a new 96-well plate and adding 90 μL of 1× kinase buffer to each well of the intermediate plate. The compounds in intermediate plate were mixed for 10 min on shaker. (5) Assay plate was prepared by transferring 5 μL of each well from the 96-well intermediate plate to a 384-well plate in duplicates.
(§6) (1) 2.5× Enzyme solution was prepared by adding kinase in 1× kinase base buffer. (2) 2.5× Peptide solution was prepared by adding FAM-labeled peptide and ATP in the 1× kinase base buffer. (3) 2.5× Enzyme solution was transferred to the assay plate contained 5 μL of compound in 10% DMSO, which was incubated at room temperature for 10 min. (4) 10 μL of 2.5× […] solution was added to each well of the 384-well assay plate. (5) Kinase reaction and stopping, after incubating at 28° C. for specified period of time, 25 μL of stop buffer was added to stop reaction.
(§7) 4. Caliper Reading, Collect Data on Caliper.
(§8) (1) Copying conversion data from Caliper program; (2) Converting conversion values to inhibition values: Percent inhibition=(max−conversion)/(max−min)*100; “max” means the value of control without compound; “min” means the value of control without enzyme; (3) Fitting the data in XLfit to obtain IC50 values.

[2] = biological target: CDK4/CycD3 (Homo sapiens, UniProt P11802); assay: Enzymatic inhibitory activity in vitro, CDK4 (Caliper mobility shift, FAM-labeled peptide); assay type: biochemical
Description: as §1, §2, §3, §4, §5, §6, §7, §8

[3] = Pharmacokinetics in rats (iv and oral, plasma LC-MS/MS); assay type: in vivo, male SD rats; settings: rat
Description: The assay agents and samples are as shown below:
Propranolol: Propranolol (internal standard); MTBE: Methyl Tertiary Butyl Ether; Cremophor EL: polyoxyethylated castor oil; KolliphorHS 15: polyethylene glycol 12-hydroxystearate; DMSO: dimethylsulfoxide; PEG400: polyethylene glycol 400; 18 male SD rats.
Each test compound prepared was completely dissolved in a mixture of 5% DMSO+10% KolliphorHS 15+35% Saline or 5% DMSO+60% PEG400+35% Saline according solubility property thereof.
Grouping male SD rats weighing 190-250 g randomly to two groups; one group was administered with test compound at a dose of 1.0 mg/kg by intravenous injection, the other group was administered with test compound at a dose of 5.0 mg/kg by oral. After administering, blood samples of intravenous injection group were collected at time points of 0.0833, 0.25, 0.5, 1, 2, 5, 7 and 24 h from caudal vein; blood samples of oral group were collected at time points of 0.25, 0.5, 1, 2, 5, 7 and 24 h from caudal vein. Standard curve was plotted based on concentrations of the samples in a suitable range, the concentrations of test compounds in plasma samples were determined by using LC-MS/MS. Pharmacokinetic parameters were calculated according to drug concentration-time curve using a noncompartmental method by WinNonLin 6.3 software.

Chain of CDK6/CycD3 (Q00534 whole entry, species assumed): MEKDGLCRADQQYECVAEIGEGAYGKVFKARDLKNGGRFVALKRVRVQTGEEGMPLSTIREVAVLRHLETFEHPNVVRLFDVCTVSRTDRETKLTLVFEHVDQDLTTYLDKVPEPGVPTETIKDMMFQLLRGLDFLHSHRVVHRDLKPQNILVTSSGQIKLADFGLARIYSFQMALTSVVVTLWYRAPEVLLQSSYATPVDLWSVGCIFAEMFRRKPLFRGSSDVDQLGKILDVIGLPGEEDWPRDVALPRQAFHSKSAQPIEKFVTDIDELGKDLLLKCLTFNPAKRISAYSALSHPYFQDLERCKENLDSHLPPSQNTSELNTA
Chain of CDK6/CycD3 (P30281 whole entry partner, species assumed): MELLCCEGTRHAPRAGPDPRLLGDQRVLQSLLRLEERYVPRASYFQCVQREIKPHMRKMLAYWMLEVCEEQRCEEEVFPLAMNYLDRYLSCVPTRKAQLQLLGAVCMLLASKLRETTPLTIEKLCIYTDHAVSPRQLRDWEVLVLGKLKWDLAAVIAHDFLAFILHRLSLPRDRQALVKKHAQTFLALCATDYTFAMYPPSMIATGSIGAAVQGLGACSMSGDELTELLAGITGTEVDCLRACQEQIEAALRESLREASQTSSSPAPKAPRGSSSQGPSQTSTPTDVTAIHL
Chain of CDK4/CycD3 (P11802 whole entry, species assumed): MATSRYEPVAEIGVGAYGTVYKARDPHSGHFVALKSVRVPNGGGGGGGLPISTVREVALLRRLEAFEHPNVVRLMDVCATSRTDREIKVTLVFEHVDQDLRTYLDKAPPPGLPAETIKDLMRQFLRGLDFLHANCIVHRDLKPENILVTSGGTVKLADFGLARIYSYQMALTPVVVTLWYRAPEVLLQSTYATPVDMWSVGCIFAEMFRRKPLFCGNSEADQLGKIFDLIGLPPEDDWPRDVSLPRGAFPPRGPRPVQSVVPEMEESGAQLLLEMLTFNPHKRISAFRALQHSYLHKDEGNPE
Chain of CDK4/CycD3 (P30281 whole entry partner, species assumed): as the sequence (P30281 whole entry partner, species assumed) above

With `CC(=O)c1c(C)c2cnc(Nc3ccc4c(ccn4C4CCNCC4)c3)nc2n(C2CCCC2)c1=O` [Example 1, 6-Acetyl-8-cyclopentyl-5-methyl-2-((1-(piperidin-4-yl)-1H-indol-5-yl)amino)pyrido[2,3-d]pyrimidin-7(8H)-one] as the molecule, how does the IC50 [1] read?
The IC50 was 29.2 nM.

And the IC50 [2]?
The IC50 was 6.8 nM.

Which IC50 [1] does the source give for `CC(=O)c1c(C)c2cnc(Nc3ncnc4c(C5=CCNCC5)csc34)nc2n(C2CCCC2)c1=O` [Example 2, 6-Acetyl-8-cyclopentyl-5-methyl-2-((7-(1,2,3,6-tetrahydropyridin-4-yl)thieno[3,2-d]pyrimidin-4-yl)amino)pyrido[2,3-d]pyrimidin-7(8H)-one] here?
Its IC50 is 4810 nM.

What about the IC50 [2] of the same molecule?
The IC50 was 2390 nM.

Which bioavailability ([3]; male, SD, in vivo) does the source give for `CC(=O)c1c(C)c2cnc(Nc3ccc4c(n3)CCNC4)nc2n(C2CCCC2)c1=O` [Example 3, 6-Acetyl-8-cyclopentyl-5-methyl-2-((5,6,7,8-tetrahydro-1,6-naphthyridin-2-yl)amino)pyrido[2,3-d]pyrimidin-7(8H)-one] here?
The bioavailability was 101%.

And the AUC(0-inf) ([3]; male, SD, in vivo, iv, 1 mg/kg)?
Its AUC(0-inf) is 587 ng·h/mL.

What about the AUC(0-t) ([3]; male, SD, in vivo, iv, 1 mg/kg) of the same molecule?
The AUC(0-t) was 485 ng·h/mL.

What about the Cmax ([3]; male, SD, in vivo, iv, 1 mg/kg) of the same molecule?
The Cmax was 141 ng/mL.

What about the Tmax ([3]; male, SD, in vivo, iv, 1 mg/kg) of the same molecule?
Its Tmax is 0.42 h.

And the half-life ([3]; male, SD, in vivo, iv, 1 mg/kg)?
The half-life was 2.93 h.

And the AUC(0-inf) ([3]; male, SD, in vivo, po, 5 mg/kg)?
The AUC(0-inf) was 2970 ng·h/mL.

And the AUC(0-t) ([3]; male, SD, in vivo, po, 5 mg/kg)?
Its AUC(0-t) is 2930 ng·h/mL.

And the Cmax ([3]; male, SD, in vivo, po, 5 mg/kg)?
The Cmax was 293 ng/mL.

And the Tmax ([3]; male, SD, in vivo, po, 5 mg/kg)?
The Tmax was 4 h.

And the half-life ([3]; male, SD, in vivo, po, 5 mg/kg)?
Its half-life is 3.91 h.

What about the IC50 [1] of the same molecule?
The IC50 was 47 nM.

What about the IC50 [2] of the same molecule?
The IC50 was 5.7 nM.

Which IC50 [1] does the source give for `CC(=O)c1c(C)c2cnc(Nc3ccc4c(n3)CCN(C(=O)CO)C4)nc2n(C2CCCC2)c1=O` [Example 4, 6-Acetyl-8-cyclopentyl-2-((6-(2-hydroxyacetyl)-5,6,7,8-tetrahydro-1,6-naphthyridin-2-yl)amino)-5-methylpyrido[2,3-d]pyrimidin-7(8H)-one] here?
Its IC50 is 62 nM.

And the IC50 [2]?
Its IC50 is 17 nM.

For `CC(=O)c1c(C)c2cnc(Nc3ccc4c(n3)CCN(CCC(F)(F)F)C4)nc2n(C2CCCC2)c1=O` [Example 5, 6-Acetyl-8-cyclopentyl-5-methyl-2-((6-(3,3,3-trifluoropropyl)-5,6,7,8-tetrahydro-1,6-naphthyridin-2-yl)amino)pyrido[2,3-d]pyrimidin-7(8H)-one], which IC50 [1] is on record?
The IC50 was 1060 nM.

What about the IC50 [2] of the same molecule?
Its IC50 is 25 nM.

For `CC(=O)c1c(C)c2cnc(Nc3ccc4c(n3)CCN(C(C)=O)C4)nc2n(C2CCCC2)c1=O` [Example 6, 6-Acetyl-2-((6-acetyl-5,6,7,8-tetrahydro-1,6-naphthyridin-2-yl)amino)-8-cyclopentyl-5-methylpyrido[2,3-d]pyrimidin-7(8H)-one], which IC50 [1] is on record?
The IC50 was 65 nM.

And the IC50 [2]?
The IC50 was 20 nM.

Which IC50 [1] does the source give for `CCN1CCc2nc(Nc3ncc4c(C)c(C(C)=O)c(=O)n(C5CCCC5)c4n3)ccc2C1` [Example 7, 6-Acetyl-2-((6-ethyl-5,6,7,8-tetrahydro-1,6-naphthyridin-2-yl)amino)-8-cyclopentyl-5-methylpyrido[2,3-d]pyrimidin-7(8H)-one] here?
The IC50 was 83 nM.

And the IC50 [2]?
Its IC50 is 19 nM.

For `CC(=O)c1c(C)c2cnc(Nc3ccc4c(n3)CCN(C3CCNCC3)C4)nc2n(C2CCCC2)c1=O` [Example 39], which IC50 [1] is on record?
The IC50 was 51 nM.

What about the IC50 [2] of the same molecule?
The IC50 was 14 nM.

For `CC(=O)c1c(C)c2cnc(Nc3ccc4c(n3)CCN(C3CCN(C)CC3)C4)nc2n(C2CCCC2)c1=O` [Example 40, 6-Acetyl-8-cyclopentyl-5-methyl-2-((6-(1-methylpiperidin-4-yl)-5,6,7,8-tetrahydro-1,6-naphthyridin-2-yl)amino)pyrido[2,3-d]pyrimidin-7(8H)-one], which IC50 [1] is on record?
Its IC50 is 25 nM.

And the IC50 [2]?
The IC50 was 7.2 nM.

With `CC(=O)c1c(C)c2cnc(Nc3ccc4c(n3)CCN(C3COC3)C4)nc2n(C2CCCC2)c1=O` [Example 41, 6-Acetyl-8-cyclopentyl-5-methyl-2-((6-(oxetan-3-yl)-5,6,7,8-tetrahydro-1,6-naphthyridin-2-yl)amino)pyrido[2,3-d]pyrimidin-7(8H)-one] as the molecule, how does the IC50 [1] read?
The IC50 was 59 nM.

And the IC50 [2]?
The IC50 was 18 nM.

With `CC(=O)c1c(C)c2cnc(Nc3ccc(N4CCNCC4)cn3)nc2n(C2CCCC2)c1=O` [Palbociclib, reference compound] as the molecule, how does the AUC(0-inf) ([3]; plasma, male SD rats, iv, 1.0 mg/kg, read-out: AUCINF) read?
The AUC(0-inf) was 332 ng·h/mL.

And the AUC(0-t) ([3]; plasma, male SD rats, iv, 1.0 mg/kg, read-out: AUClast)?
The AUC(0-t) was 294 ng·h/mL.

And the Cmax ([3]; plasma, male SD rats, iv, 1.0 mg/kg, read-out: Cmax)?
The Cmax was 143 ng/mL.

And the half-life ([3]; plasma, male SD rats, iv, 1.0 mg/kg, read-out: T1/2 (converted))?
Its half-life is 2.72 h.

And the Tmax ([3]; plasma, male SD rats, iv, 1.0 mg/kg, read-out: Tmax)?
The Tmax was 0.083 h.

What about the bioavailability ([3]; plasma, male SD rats, po 5.0 mg/kg versus iv 1.0 mg/kg, read-out: F (%)) of the same molecule?
Its bioavailability is 79.9%.

What about the AUC(0-inf) ([3]; plasma, male SD rats, po, 5.0 mg/kg, read-out: AUCINF) of the same molecule?
Its AUC(0-inf) is 1400 ng·h/mL.

What about the AUC(0-t) ([3]; plasma, male SD rats, po, 5.0 mg/kg, read-out: AUClast) of the same molecule?
Its AUC(0-t) is 1280 ng·h/mL.

What about the Cmax ([3]; plasma, male SD rats, po, 5.0 mg/kg, read-out: Cmax) of the same molecule?
Its Cmax is 156 ng/mL.

What about the half-life ([3]; plasma, male SD rats, po, 5.0 mg/kg, read-out: T1/2 (converted)) of the same molecule?
Its half-life is 4.28 h.

What about the Tmax ([3]; plasma, male SD rats, po, 5.0 mg/kg, read-out: Tmax) of the same molecule?
Its Tmax is 2.67 h.
